Patent US10570129B2 (Zoetis Services LLC, priority 2015, dated 2020)

Tests used:
[1] = test system: Haemonchus contortus L3; experiment: microbe, parasite or virus in culture; format: cell-based; conditions: for minimal effective concentration: Haemonchus contortus, 96 h, read-out: HcL3 Minimal Effective Concentration (MEC)
[2] = test system: D. immitis microfilariae; experiment: Dirofilaria immitis, microfilariae (DiMF) in vitro motility assay; format: cell-based; conditions: for minimal effective concentration: Dirofilaria immitis, 72 h, read-out: DiMF minimally effective dose (MEC)

Row | Molecule | minimal effective concentration [1] | minimal effective concentration [2] | HcL3 Minimal Effective Concentration (MEC) [1] | DiMF minimally effective dose (MEC) ([2]; decrease in microfilariae motility by subjective visual assessment, observed at 72 hours)
1 | Cc1cccc2c1c1c(n2C(=O)NCc2ccnc(Cl)c2)CCN(C/C=C/c2ccc(Cl)cc2)C1 [Example 147, (E)-2-(3-(4-chlorophenyl)allyl)-N-((2-chloropyridin-4-yl)methyl)-9-methyl-1,2,3,4-tetrahydro-5H-pyrido[4,3-b]indole-5-carboxamide] | 2.8 µM | 10 µM | – | –
2 | O=C(NCc1ccnc(Cl)c1)n1c2c(c3ccc(Cl)cc31)CN(C/C=C/c1ccc(Cl)c(F)c1)CC2 [Example 205, (E)-7-chloro-2-(3-(4-chloro-3-fluorophenyl)allyl)-N-((2-chloropyridin-4-yl)methyl)-1,2,3,4-tetrahydro-5H-pyrido[4,3-b]indole-5-carboxamide] | 1 µM | 18.2 µM | – | –
3 | O=C(NCc1ccnc(Cl)c1)n1c2c(c3c(Cl)c(F)ccc31)CN(C/C=C/c1ccc(C(F)(F)F)cc1)CC2 [Example 308, (E)-9-chloro-N-((2-chloropyridin-4-yl)methyl)-8-fluoro-2-(3-(4-(trifluoro-methyl)phenyl)allyl)-1,2,3,4-tetrahydro-5H-pyrido[4,3-b]indole-5-carboxamide] | 10.3 µM | 32.1 µM | – | –
4 | N#Cc1ccc2c3c(n(C(=O)NCc4ccnc(Cl)c4)c2c1)CCN(C/C=C/c1c(F)c(F)c(Cl)c(F)c1F)C3 [Example 17, (E)-2-(3-(4-chloro-2,3,5,6-tetrafluorophenyl)allyl)-N-((2-chloropyridin-4-yl)methyl)-7-cyano-1,2,3,4-tetrahydro-5H-pyrido[4,3-b]indole-5-carboxamide] | 1 µM | > 100 µM | – | –
5 | O=C(NCc1ccnc(Cl)c1)n1c2c(c3cc(Cl)ccc31)CN(C/C=C/c1ccc(Cl)c(F)c1)CC2 [Example 232, (E)-8-chloro-2-(3-(4-chloro-3-fluorophenyl)allyl)-N-((2-chloropyridin-4-yl)methyl)-1,2,3,4-tetrahydro-5H-pyrido[4,3-b]indole-5-carboxamide] | 1 µM | 10 µM | – | –
6 | O=C(NCc1ccnc(Cl)c1)n1c2c(c3cc(Cl)ccc31)CN(C/C=C/c1ccncc1)CC2 [Example 248, (E)-8-chloro-N-((2-chloropyridin-4-yl)methyl)-2-(3-(pyridin-4-yl)allyl)-1,2,3,4-tetrahydro-5H-pyrido[4,3-b]indole-5-carboxamide] | 0.4 µM | 0.5 µM | – | –
7 | O=C(NCc1ccnc(F)c1)n1c2c(c3cc(F)c(Cl)cc31)CN(C/C=C/c1cc(F)c(F)c(F)c1)CC2 [Example 315, (E)-7-chloro-8-fluoro-N-((2-fluoropyridin-4-yl)methyl)-2-(3-(3,4,5-trifluorophenyl)allyl)-1,2,3,4-tetrahydro-5H-pyrido[4,3-b]indole-5-carboxamide] | 1 µM | 5.7 µM | – | –
8 | N#Cc1cc(/C=C/CN2CCc3c(c4cc(Cl)ccc4n3C(=O)NCc3ccnc(Cl)c3)C2)ccc1F [Example 234, (E)-8-chloro-N-((2-chloropyridin-4-yl)methyl)-2-(3-(3-cyano-4-fluorophenyl)allyl)-1,2,3,4-tetrahydro-5H-pyrido[4,3-b]indole-5-carboxamide] | 0.1 µM | 3.3 µM | – | –
9 | O=C(NCc1ccnc(F)c1)n1c2c(c3cc(OC(F)(F)F)ccc31)CN(C/C=C/c1cc(F)c(F)c(F)c1)CC2 [Example 406, (E)-N-((2-fluoropyridin-4-yl)methyl)-8-(trifluoromethoxy)-2-(3-(3,4,5-trifluorophenyl)allyl)-1,2,3,4-tetrahydro-5H-pyrido[4,3-b]indole-5-carboxamide] | 0.4 µM | 13.5 µM | – | –
10 | (E)-7,8-dichloro-N-((2-fluoropyridin-4-yl)methyl)-2-(3-(5-(trifluoromethyl)pyridin-2-yl)allyl)-1,2,3,4-tetrahydro-5H-pyrido[4,3-b]indole-5-carboxamide [Example 287] | – | – | 0.2 µM | 3.3 µM
11 | O=C(NCc1cnc(Cl)s1)n1c2c(c3ccc(OC(F)(F)F)cc31)CN(C/C=C/c1ccc(Cl)cc1)CC2 [Example 382, (E)-2-(3-(4-chlorophenyl)allyl)-N-((2-chlorothiazol-5-yl)methyl)-7-(trifluoromethoxy)-1,2,3,4-tetrahydro-5H-pyrido[4,3-b]indole-5-carboxamide] | 3.3 µM | 10 µM | – | –
12 | N#Cc1ccc2c3c(n(C(=O)NCc4ccnc(Cl)c4)c2c1)CCN(C/C=C/c1ccc(F)c(Br)c1)C3 [Example 12, (E)-2-(3-(3-bromo-4-fluorophenyl)allyl)-N-((2-chloropyridin-4-yl)methyl)-7-cyano-1,2,3,4-tetrahydro-5H-pyrido[4,3-b]indole-5-carboxamide] | 1.8 µM | 18.2 µM | – | –
13 | N#Cc1ccc(/C=C/CN2CCc3c(c4cc(C(F)(F)F)ccc4n3C(=O)NCc3ccnc(O)c3)C2)cc1 [Example 454, (E)-2-(3-(4-cyanophenyl)allyl)-N-((2-hydroxypyridin-4-yl)methyl)-8-(trifluoromethyl)-1,2,3,4-tetrahydro-5H-pyrido[4,3-b]indole-5-carboxamide] | > 100 µM | > 100 µM | – | –
14 | Cc1ccc2c(c1)c1c(n2C(=O)NCc2ccnc(Cl)c2)CCN(C/C=C/c2ccc(Cl)cc2)C1 [Example 431, (E)-2-(3-(4-chlorophenyl)allyl)-N-((2-chloropyridin-4-yl)methyl)-8-methyl-1,2,3,4-tetrahydro-5H-pyrido[4,3-b]indole-5-carboxamide] | 1 µM | 3.3 µM | – | –
15 | O=C(NCc1cnc(Cl)s1)n1c2c(c3cc(Cl)c(Cl)cc31)CN(C/C=C/c1ccc(Cl)cc1)CC2 [Example 294, (E)-7,8-dichloro-2-(3-(4-chlorophenyl)allyl)-N-((2-chlorothiazol-5-yl)methyl)-1,2,3,4-tetrahydro-5H-pyrido[4,3-b]indole-5-carboxamide] | > 100 µM | 10 µM | – | –
16 | CS(=O)(=O)c1ccc2c(c1)c1c(n2C(=O)NCc2ccnc(Cl)c2)CCN(C/C=C/c2ccc(Cl)cc2)C1 [Example 457, (E)-2-(3-(4-chlorophenyl)allyl)-N-((2-chloropyridin-4-yl)methyl)-8-(methylsulfonyl)-1,2,3,4-tetrahydro-5H-pyrido[4,3-b]indole-5-carboxamide] | 1 µM | 10 µM | – | –
17 | O=C(NCc1ccnc(Cl)c1)n1c2c(c3ccc(OC(F)(F)F)cc31)CN(C/C=C/c1ccc(Br)cc1F)CC2 [Example 338, (E)-2-(3-(4-bromo-2-fluorophenyl)allyl)-N-((2-chloropyridin-4-yl)methyl)-7-(trifluoromethoxy)-1,2,3,4-tetrahydro-5H-pyrido[4,3-b]indole-5-carboxamide] | 0.3 µM | 10 µM | – | –
18 | N#Cc1ccc2c(c1)c1c(n2C(=O)NCc2ccnc(Cl)c2)CCN(C/C=C/c2ccc(F)cc2Cl)C1 [Example 87, (E)-2-(3-(2-chloro-4-fluorophenyl)allyl)-N-((2-chloropyridin-4-yl)methyl)-8-cyano-1,2,3,4-tetrahydro-5H-pyrido[4,3-b]indole-5-carboxamide] | 0.2 µM | 5.7 µM | – | –
19 | O=C(NCc1ccnc(O)c1)n1c2c(c3cc(C(F)(F)F)ccc31)CN(C/C=C/c1ccc(F)cc1F)CC2 [Example 453, (E)-2-(3-(2,4-difluorophenyl)allyl)-N-((2-hydroxypyridin-4-yl)methyl)-8-(trifluoromethyl)-1,2,3,4-tetrahydro-5H-pyrido[4,3-b]indole-5-carboxamide] | > 100 µM | 10 µM | – | –
20 | COc1cc(CNC(=O)n2c3c(c4cc(C#N)ccc42)CN(C/C=C/c2ccc(Cl)c(F)c2)CC3)ccn1 [Example 64, (E)-2-(3-(4-chloro-3-fluorophenyl)allyl)-8-cyano-N-((2-methoxypyridin-4-yl)methyl)-1,2,3,4-tetrahydro-5H-pyrido[4,3-b]indole-5-carboxamide] | 0.5 µM | 3.3 µM | – | –
21 | N#Cc1ccc2c(c1)c1c(n2C(=O)NCc2ccnc(F)c2)CCN(C/C=C/c2ccc(Br)c(F)c2F)C1 [Example 111, (E)-2-(3-(4-bromo-2,3-difluorophenyl)allyl)-8-cyano-N-((2-fluoropyridin-4-yl)methyl)-1,2,3,4-tetrahydro-5H-pyrido[4,3-b]indole-5-carboxamide] | 0.3 µM | > 100 µM | – | –
22 | COc1cc(CNC(=O)n2c3c(c4cc(C#N)ccc42)CN(C/C=C/c2cc(F)c(F)c(F)c2)CC3)ccn1 [Example 63, (E)-8-cyano-N-((2-methoxypyridin-4-yl)methyl)-2-(3-(3,4,5-trifluorophenyl)allyl)-1,2,3,4-tetrahydro-5H-pyrido[4,3-b]indole-5-carboxamide] | – | 0.3 µM | – | –
23 | COc1cc(CNC(=O)n2c3c(c4cc(C#N)ccc42)CN(C/C=C/c2ccc(Cl)cc2Cl)CC3)ccn1 [Example 65, (E)-8-cyano-2-(3-(2,4-dichlorophenyl)allyl)-N-((2-methoxypyridin-4-yl)methyl)-1,2,3,4-tetrahydro-5H-pyrido[4,3-b]indole-5-carboxamide] | – | > 100 µM | – | –
24 | COc1cc(CNC(=O)n2c3c(c4cc(C#N)ccc42)CN(C/C=C/c2ccc(F)cc2F)CC3)ccn1 [Example 67, (E)-8-cyano-2-(3-(2,4-difluorophenyl)allyl)-N-((2-methoxypyridin-4-yl)methyl)-1,2,3,4-tetrahydro-5H-pyrido[4,3-b]indole-5-carboxamide] | – | 0.01 µM | – | –
25 | COc1cc(CNC(=O)n2c3c(c4cc(C#N)ccc42)CN(C/C=C/c2ccc(Br)cc2F)CC3)ccn1 [Example 66, (E)-2-(3-(4-bromo-2-fluorophenyl)allyl)-8-cyano-N-((2-methoxypyridin-4-yl)methyl)-1,2,3,4-tetrahydro-5H-pyrido[4,3-b]indole-5-carboxamide] | – | > 100 µM | – | –
